Source: US8557816B2, “Aurora kinase modulators and method of use” (Amgen Inc., priority 2007, dated 2013)

Assays:
[1] = target: T1, AuroraA-TPX2 (Homo sapiens, UniProt O14965); experiment: AuroraA-TPX2 Homogeneous Time Resolved Fluorescent (HTRF) kinase assay; format: biochemical; settings: average; read-out: AurA_IC50_IP (uM Avg)
T1 construct: 20 μL of AuroraA-TPX2 KD GST for a final volume of about 41 μL; GST
T1 sequence (O14965 133-383 limits assumed): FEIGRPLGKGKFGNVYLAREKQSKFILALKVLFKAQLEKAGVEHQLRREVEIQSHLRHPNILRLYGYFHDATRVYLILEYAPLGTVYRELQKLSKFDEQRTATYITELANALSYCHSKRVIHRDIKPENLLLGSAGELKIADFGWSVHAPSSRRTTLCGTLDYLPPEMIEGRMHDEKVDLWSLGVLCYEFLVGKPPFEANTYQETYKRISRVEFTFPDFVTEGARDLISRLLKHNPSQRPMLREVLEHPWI
T1 sequence (Q9ULW0 1-43 partner limits assumed): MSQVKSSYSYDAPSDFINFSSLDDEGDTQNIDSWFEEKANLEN
Summary of the method: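 HTRF read-out (Eu 615 nm to APC 655 nm) of phosphorylated biotin-PLK, detected with 0.02 nM europium anti-phosphoPLK antibody and 0.0005 mg/mL SA-APC after overnight equilibration.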

[2] = target: T2, AuroraB (Homo sapiens, UniProt Q96GD4); experiment: AuroraB Homogeneous Time Resolved Fluorescent (HTRF) kinase assay; format: biochemical; settings: average; read-out: AurB_IC50_IP (uM Avg)
T2 construct: 20 μL of AuroraB FL H is for a final volume of 41 μL; His
Summary of the method: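 Read-out is time-resolved FRET between europium anti-phospho-H3 antibody and streptavidin-APC, added in EDTA buffer to stop the reaction and equilibrated about 60 min (ex 320, em 615 and 655 nm). Preceding reaction: ~90 min, full-length enzyme, ATP, 0.1 μM biotin-Histone H3 substrate, Mg/Mn HEPES buffer pH 7.5.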

T2 sequence (Q96GD4 whole entry): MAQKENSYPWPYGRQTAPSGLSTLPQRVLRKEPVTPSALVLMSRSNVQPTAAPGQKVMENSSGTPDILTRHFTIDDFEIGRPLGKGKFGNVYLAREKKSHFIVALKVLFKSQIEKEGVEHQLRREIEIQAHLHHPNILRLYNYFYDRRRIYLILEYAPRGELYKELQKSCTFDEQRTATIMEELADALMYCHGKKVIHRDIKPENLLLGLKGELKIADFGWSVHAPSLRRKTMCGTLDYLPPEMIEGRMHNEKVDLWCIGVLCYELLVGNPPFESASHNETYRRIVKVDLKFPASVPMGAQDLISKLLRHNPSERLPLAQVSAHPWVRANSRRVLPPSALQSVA

IC50 [1]	IC50 [2]	Compound
0.042 µM	0.035 µM	COc1cc(F)cc2nccc(Oc3ccc(Nc4nnc(-c5ccc(Cl)cc5)c5ccccc45)cc3)c12 [compound 437]
0.112 µM	0.051 µM	COc1cc(F)cc2nccc(Sc3ccc(Nc4nnc(-c5ccc(Cl)cc5)c5ccccc45)cc3)c12 [compound 438]
1.66 µM	3.2 µM	COc1cc(OC)c2c(Sc3ccc(Nc4nnc(-c5cc(C)cs5)c5ccccc45)cc3)ccnc2c1 [compound 439]
0.585 µM	0.596 µM	COc1cc(F)cc2nccc(Sc3ccc(Nc4nnc(-c5cc(C)cs5)c5ccccc45)cc3)c12 [compound 440]
0.456 µM	0.135 µM	COc1cc(OC)c2c(Oc3ccc(Nc4nnc(-c5cc(C)cs5)c5ccccc45)cc3)ccnc2c1 [compound 441]
0.157 µM	0.017 µM	COc1cc(F)cc2nccc(Oc3ccc(Nc4nnc(-c5cc(C)cs5)c5ccccc45)cc3)c12 [compound 442]
0.012 µM	0.002 µM	c1cnc2c(Sc3ccc(Nc4nnc(-c5ccc6c(c5)OCO6)c5ccccc45)cc3)ccnc2c1 [compound 443]
0.128 µM	0.022 µM	FC1(F)Oc2ccc(-c3nnc(Nc4ccc(Sc5ccnc6cccnc56)cc4)c4ccccc34)cc2O1 [compound 444]
0.03 µM	0.013 µM	c1cnc2c(Sc3ccc(Nc4nnc(-c5ccc6c(c5)CCO6)c5ccccc45)cc3)ccnc2c1 [compound 445]
0.035 µM	0.011 µM	c1cnc2c(Sc3ccc(Nc4nnc(-c5ccc6occc6c5)c5ccccc45)cc3)ccnc2c1 [compound 446]
0.027 µM	0.013 µM	Cc1csc(-c2nnc(Nc3ccc(Oc4ccnc5cccnc45)cc3)c3ccccc23)c1 [compound 447]
0.039 µM	0.011 µM	Clc1ccc(-c2nnc(Nc3ccc(Oc4ccnc5cccnc45)cc3)c3ccccc23)cc1 [compound 448]
0.026 µM	0.006 µM	COc1cnc2c(Oc3ccc(Nc4nnc(-c5ccc(C)c(O)c5)c5ccccc45)cc3)ccnc2c1 [compound 449]
0.101 µM	0.054 µM	COCCOc1cc(-c2nnc(Nc3ccc(Sc4ccnc5cc(OC)cnc45)cc3)c3ccccc23)ccc1Cl [compound 450]
0.078 µM	0.033 µM	COc1cnc2c(Sc3ccc(Nc4nnc(-c5ccc(C)c(O)c5)c5ccccc45)cc3)ccnc2c1 [compound 451]
0.058 µM	0.003 µM	Oc1cc(-c2nnc(Nc3ccc(Sc4ccnc5cccnc45)cc3)c3ccccc23)ccc1Cl [compound 452]
0.028 µM	0.032 µM	COc1cnc2c(Sc3ccc(Nc4nnc(-c5ccc6cn[nH]c6c5)c5ccccc45)cc3)ccnc2c1 [compound 453]
0.05 µM	0.01 µM	COc1cnc2c(Oc3c(F)cc(Nc4nnc(-c5ccc(Cl)cc5)c5ccccc45)cc3F)ccnc2c1 [compound 454]
> 125 µM	0.013 µM	Fc1ccc2c(Oc3ccc(Nc4nnc(-c5ccc(Cl)cc5)c5ccccc45)cc3)ccnc2c1 [compound 455]
1 µM	0.058 µM	COc1cnnc(Nc2ccc(Oc3ccnc4cc(OC)cnc34)cc2)c1 [compound 456]

IC50 [1]	IC50 [2]	Compound
0.062 µM	0.015 µM	N#Cc1cc2nccc(Sc3ccc(Nc4nnc(-c5ccc6c(c5)OCO6)c5ccccc45)cc3)c2s1 [compound 457]
> 25 µM	0.097 µM	N#Cc1cc2nccc(Sc3ccc(Nc4nnc(-c5ccccc5)c5ccccc45)cc3)c2s1 [compound 458]
0.21 µM	0.15 µM	Cc1csc(-c2nnc(Nc3ccc(Sc4ccnc5cc(C#N)sc45)cc3)c3ccccc23)c1 [compound 459]
0.045 µM	0.015 µM	N#Cc1cc2nccc(Sc3ccc(Nc4nnc(-c5ccc(Cl)cn5)c5ccccc45)cc3)c2s1 [compound 460]
0.044 µM	0.009 µM	Cc1ccc(-c2nnc(Nc3ccc(Sc4ccnc5cc(C#N)sc45)cc3)c3ccccc23)cn1 [compound 461]
0.557 µM	0.01 µM	c1ccc(-c2nnc(Nc3ccc(Sc4ccnc5cc[nH]c45)cc3)c3ccccc23)cc1 [compound 462, 4-phenyl-N-(4-(1H-pyrrolo[3,2-b]pyridin-7-ylthio)phenyl)-1-phthalazinamine]
0.146 µM	0.008 µM	Clc1ccc(-c2nnc(Nc3ccc(Sc4ccnc5cc[nH]c45)cc3)c3ccccc23)cc1 [compound 463, 4-(4-chlorophenyl)-N-(4-(1H-pyrrolo[3,2-b]pyridin-7-ylthio)phenyl)-1-phthalazinamine]
0.088 µM	0.006 µM	Cc1csc(-c2nnc(Nc3ccc(Sc4ccnc5cc[nH]c45)cc3)c3ccccc23)c1 [compound 464, 4-(4-methyl-2-thienyl)-N-(4-(1H-pyrrolo[3,2-b]pyridin-7-ylthio)phenyl)-1-phthalazinamine]
0.093 µM	0.012 µM	Clc1ccc(-c2nnc(Nc3ccc(Sc4ccnc5ccoc45)cc3)c3ccccc23)cc1 [compound 465]
0.431 µM	0.013 µM	c1ccc(-c2nnc(Nc3ccc(Sc4ccnc5ccoc45)cc3)c3ccccc23)cc1 [compound 466]
0.095 µM	0.01 µM	c1ccc2c(-c3ccc4c(c3)OCO4)nnc(Nc3ccc(Sc4ccnc5ccoc45)cc3)c2c1 [compound 467]
0.129 µM	0.029 µM	Cc1csc(-c2nnc(Nc3ccc(Sc4ccnc5ccoc45)cc3)c3ccccc23)c1 [compound 468]
0.11 µM	0.053 µM	COCCn1ccc2nccc(Sc3ccc(Nc4nnc(-c5ccc(Cl)cc5)c5ccccc45)cc3)c21 [compound 469, 4-(4-chlorophenyl)-N-(4-((1-(2-(methyloxy)ethyl)-1H-pyrrolo[3,2-b]pyridin-7-yl)thio)phenyl)-1-phthalazinamine]
0.041 µM	0.051 µM	COCCn1ccc2nccc(Sc3ccc(Nc4nnc(-c5cc(C)cs5)c5ccccc45)cc3)c21 [compound 470, N-(4-((1-(2-(methyloxy)ethyl)-1H-pyrrolo[3,2-b]pyridin-7-yl)thio)phenyl)-4-(4-methyl-2-thienyl)-1-phthalazinamine]
0.09 µM	0.049 µM	CC(C)n1ccc2nccc(Sc3ccc(Nc4nnc(-c5ccc(Cl)cc5)c5ccccc45)cc3)c21 [compound 471, 4-(4-chlorophenyl)-N-(4-((1-(1-methylethyl)-1H-pyrrolo[3,2-b]pyridin-7-yl)thio)phenyl)-1-phthalazinamine]
0.064 µM	0.099 µM	Cc1csc(-c2nnc(Nc3ccc(Sc4ccnc5ccn(C(C)C)c45)cc3)c3ccccc23)c1 [compound 472, N-(4-((1-(1-methylethyl)-1H-pyrrolo[3,2-b]pyridin-7-yl)thio)phenyl)-4-(4-methyl-2-thienyl)-1-phthalazinamine]
0.073 µM	0.011 µM	COCCOc1ccc(-c2nnc(Nc3ccc(Sc4ccnc5cc(OC)cnc45)cc3)c3ccccc23)cc1OCCOC [compound 473]
0.051 µM	0.016 µM	COCCOc1ccc(-c2nnc(Nc3ccc(Sc4ccnc5cc(OC)cnc45)cc3)c3ccccc23)cc1 [compound 474]
0.035 µM	0.026 µM	COCCOCCOc1ccc2nccc(Sc3ccc(Nc4nnc(-c5ccc(Cl)cc5)c5ccccc45)cc3)c2n1 [compound 475]
